Source: EPA's ToxValDB 9.5 (doi:10.2903/j.efsa.2008.128r)

How the values were obtained:
Anas platyrhynchos = settings: oral, mortality
Canidae = settings: subchronic; duration: 90 days; oral; Dog Other; organ weight
Daphnia magna = settings: chronic/long-term; duration: 21 days
Apis mellifera = settings: acute; duration: 48 hours; oral; unspecified; mortality
Mus musculus = settings: acute; oral; mortality
Colinus virginianus = settings: for LD50: acute, oral, mortality
Typhlodromus pyri = assay: LR50; higher = less toxic; settings: not reported; mortality

## CC(C)N1C(=O)N(c2ccccc2)CSC1=NC(C)(C)C [Buprofezin]
Anas platyrhynchos; acute, unspecified
  LD50: > 2000 mg/kg-day
Anas platyrhynchos; short-term, feed
  LC50: > 1310 mg/kg-day
Oncorhynchus mykiss; acute, duration: 96 hours, mortality
  LC50: > 0.33 µg/mL
Oncorhynchus mykiss; chronic/long-term, growth
  NOEC: 0.052 mg/L
Canidae
  NOAEL: 10 mg/kg-day
Rattus norvegicus; acute, oral, mortality
  LD50: > 2000 mg/kg-day
Rattus norvegicus; chronic, duration: 2 years, oral, diet, M/F, organ weight
  NOAEL: 0.9 mg/kg-day
Rattus norvegicus; developmental, development
  NOAEL: 50 mg/kg-day
Rattus norvegicus; reproduction developmental, body weight
  NOAEL: 66 mg/kg-day
Daphnia magna
  NOEC: 0.08 mg/L
Apis mellifera
  LD50: > 164 µg/piece
Mus musculus
  LD50: > 2000 mg/kg-day
Colinus virginianus; diet
  LD50: > 1310 mg/kg-day
Colinus virginianus
  LD50: > 2000 mg/kg-day
Colinus virginianus; developmental, development
  NOEC: 48 mg/kg-day
Colinus virginianus; reproduction developmental, reproduction
  NOEC: 198 mg/kg-day
Tagia sp.; acute, duration: 14 days, mortality
  LC50: > 1000 mg/kg
Tagia sp.; chronic/long-term, duration: 56 days, reproduction
  NOEC: 500 mg/kg
Typhlodromus pyri
  LR50: > 3000 g/ha
